Assay [1] relates to Plasmodium falciparum. The assay is described as follows: Inhibition of chloroquine sensitive Plasmodium falciparum MRC-02 schizont stage infected in human erythrocytes assessed as reduction in […] growth after 24 hrs by Giemsa staining based assay. It is filed as cell-based. The conditions noted are these: MRC-02, 24 h.
In assay [2] the test system is Plasmodium falciparum. The assay is described as follows: Resistance index, ratio of IC50 for chloroquine sensitive Plasmodium falciparum MRC-02 schizont stage infected in human erythrocytes to IC50 for chloroquine resistant Plasmodium falciparum RKL9 schizont stage infected in human erythrocytes.
The subject of assay [3] is Plasmodium falciparum. The assay is described as follows: Inhibition of chloroquine resistant Plasmodium falciparum RKL9 schizont stage infected in human erythrocytes assessed as reduction in […] growth after 24 hrs by Giemsa staining based assay. It is filed as cell-based. The conditions noted are these: RKL9, 24 h.
The test system of assay [4] is Plasmodium berghei. Briefly: Antimalarial activity against Plasmodium berghei infected in Swiss albino mouse assessed as suppression of parasitaemia at 25 mg/kg/day, po for 4 consecutive days starting from 4 hrs post infection measured on day 4 post last dose by Giemsa staining based microscopic method relative to control. The format is functional.
Assay [5] has as its system Plasmodium berghei. The assay is described as follows: Antimalarial activity against Plasmodium berghei infected in Swiss albino mouse assessed as increase in mouse survival at 25 mg/kg/day, po for 4 consecutive days starting from 4 hrs post infection measured on day 28 by Giemsa staining based microscopic method. The format is functional, organism-based.
Assay [6] relates to Plasmodium berghei. The assay is described as follows: Antimalarial activity against Plasmodium berghei infected in Swiss albino mouse assessed as increase in mouse survival at 20 mg/kg/day, po for 4 consecutive days starting from 4 hrs post infection measured on day 28 by Giemsa staining based microscopic method. The format is functional, organism-based.
Assay [7] concerns Plasmodium berghei. Briefly: Antimalarial activity against Plasmodium berghei infected in Swiss albino mouse assessed as suppression of parasitaemia at 20 mg/kg/day, po for 4 consecutive days starting from 4 hrs post infection measured on day 4 post last dose by Giemsa staining based microscopic method relative to control. It is filed as functional.

Activity calls are given as the source filed them. The calls are words filed in the database; no cut-off is given here.

The results in this text go back to ChEMBL document CHEMBL4219189, “Designing novel inhibitors against falcipain-2 of Plasmodium falciparum” (Bioorg Med Chem Lett, 2018).

Take `CCN(CC)c1ccc2cc(C3=NN(C(=O)c4ccccc4)C(c4ccc(O)cc4)C3)c(=O)oc2c1` (centres undefined): the IC50 with Plasmodium falciparum [1] came to 14.3 µM; with Plasmodium falciparum [3], 26.7 µM. Also, in the assay with Plasmodium falciparum [2], the “Ratio IC50” value was found to be 0.53.
For the molecule `CCN(CC)c1ccc2cc(C3=NN(c4ccccc4)C(c4ccc(Cl)cc4)C3)c(=O)oc2c1` (centres undefined), the Activity in the assay on Plasmodium berghei [4] stood at 34%. Further, the outcome in the assay with Plasmodium berghei [5] was inactive. Further, the IC50 with Plasmodium falciparum [1] was 10.4 µM; in the assay on Plasmodium falciparum [3], 9.1 µM. Moreover, the “Ratio IC50” value in the assay on Plasmodium falciparum [2] stood at 1.1.
Take `CCN(CC)c1ccc2cc(C3=NN(c4ccccc4)C(c4ccc(O)cc4)C3)c(=O)oc2c1` (centres undefined): the IC50 came to 17.5 µM in the assay with Plasmodium falciparum [1] and 25.3 µM in the assay with Plasmodium falciparum [3]. In addition, the “Ratio IC50” value in the assay on Plasmodium falciparum [2] came out at 0.69.
As for `CCN(CC)c1ccc2cc(C3=NNC(c4ccc(F)cc4)C3)c(=O)oc2c1` (centres undefined), the results for the IC50 in the assay on Plasmodium falciparum [1] and with Plasmodium falciparum [3] were 34.2 µM and 44.5 µM, respectively. Further, the “Ratio IC50” value with Plasmodium falciparum [2] is 0.76.
With `CCN(CC)c1ccc2cc(C3=NN(c4ccccc4)C(c4ccc([N+](=O)[O-])cc4)C3)c(=O)oc2c1` (centres undefined), the IC50 came to 20.9 µM in the assay on Plasmodium falciparum [1] and 41.6 µM in the assay on Plasmodium falciparum [3]. Further, the “Ratio IC50” value in the assay on Plasmodium falciparum [2] was 0.5.
Regarding `CCN(CC)c1ccc2cc(C3=NN(c4ccccc4)C(c4ccc(F)cc4)C3)c(=O)oc2c1` (centres undefined), the IC50 with Plasmodium falciparum [1] turned out to be 26.9 µM; with Plasmodium falciparum [3], 33.8 µM. Moreover, in the assay on Plasmodium falciparum [2], the “Ratio IC50” value is reported as 0.79.
With `CCN(CC)c1ccc2cc(C3=NN(C(=O)c4ccccc4)C(c4ccc(Cl)cc4)C3)c(=O)oc2c1` (centres undefined), the IC50 in the assay on Plasmodium falciparum [1] and in the assay on Plasmodium falciparum [3] was greater than 100 µM each time.
For the molecule `CCN(CC)c1ccc2cc(C3=NNC(c4ccc(O)cc4)C3)c(=O)oc2c1` (centres undefined), the IC50 in the assay with Plasmodium falciparum [1] is 26.7 µM; in the assay with Plasmodium falciparum [3], 29.9 µM. Moreover, the “Ratio IC50” value in the assay with Plasmodium falciparum [2] was 0.89.
As to `CCN(CC)c1ccc2cc(C3=NN(C(=O)c4ccccc4)C(c4ccccc4)C3)c(=O)oc2c1` (centres undefined), the IC50 with Plasmodium falciparum [1] and in the assay with Plasmodium falciparum [3] was greater than 100 µM in each case.
For the molecule `CCN(CC)c1ccc2cc(C3=NN(c4ccccc4)C(c4ccccc4)C3)c(=O)oc2c1` (centres undefined), the IC50 in the assay on Plasmodium falciparum [1] and in the assay on Plasmodium falciparum [3] was greater than 100 µM throughout.
With `CCN(CC)c1ccc2cc(C3=NNC(c4ccccc4)C3)c(=O)oc2c1` (centres undefined), the half-maximal inhibitory concentration (IC50) in the assay on Plasmodium falciparum [1] and in the assay with Plasmodium falciparum [3] was greater than 100 µM in each case.
Regarding `CCN(CC)c1ccc2cc(C3=NNC(c4ccc([N+](=O)[O-])cc4)C3)c(=O)oc2c1` (centres undefined), the figures for the IC50 in the assay on Plasmodium falciparum [1] and with Plasmodium falciparum [3] were 19.7 µM and 30.4 µM, respectively. Besides, the “Ratio IC50” value in the assay on Plasmodium falciparum [2] was 0.64.
For `CCN(CC)c1ccc2cc(C3=NN(C(=O)c4ccccc4)C(c4ccc([N+](=O)[O-])cc4)C3)c(=O)oc2c1` (centres undefined), the Activity with Plasmodium berghei [4] is on record as 62%. In addition, the outcome with Plasmodium berghei [5] was inactive. In addition, the IC50 in the assay with Plasmodium falciparum [1] came out at 3.3 µM; in the assay with Plasmodium falciparum [3] it was 2.1 µM. For the same molecule, in the assay with Plasmodium falciparum [2], the “Ratio IC50” value is recorded as 1.6.
For `CCN(CC)c1ccc2cc(C3=NNC(c4ccc(Cl)cc4)C3)c(=O)oc2c1` (centres undefined), the IC50 with Plasmodium falciparum [1] worked out at 18.6 µM; with Plasmodium falciparum [3] it was 27.1 µM. Further, in the assay on Plasmodium falciparum [2], the “Ratio IC50” value is listed as 0.68.
Consider `CCN(CC)c1ccc2cc(C3=NN(C(=O)c4ccccc4)C(c4ccc(F)cc4)C3)c(=O)oc2c1` (centres undefined), for which the Activity in the assay on Plasmodium berghei [4] was 100%. In addition, the result in the assay with Plasmodium berghei [5] was Active. In addition, the IC50 with Plasmodium falciparum [1] was found to be 4.2 µM; in the assay on Plasmodium falciparum [3], 1.9 µM. Further, the “Ratio IC50” value in the assay with Plasmodium falciparum [2] stood at 2.2.
Turning to `CCN(CC)CCCC(C)Nc1ccnc2cc(Cl)ccc12` (centres undefined) [CHLOROQUINE], the outcome with Plasmodium berghei [6] was Active. For the same molecule, the Activity in the assay on Plasmodium berghei [7] was 100%.
